# PMC2064103 (The Journal of Cell Biology, 2007)
# Tests used:
# Assay in all cases: radiolabelled glycopeptide formation, ConA Sepharose capture, gamma counting
# T. vaginalis OST = format: biochemical, Trichomonas vaginalis; conditions: 10 μM acceptor tripeptide; Mg2+, Mn2+, pH 7.4; non-cooperative
# E. histolytica OST = format: biochemical, Entamoeba histolytica; conditions: 15 μM acceptor tripeptide; Mg2+, Mn2+, pH 7.4; non-cooperative
# T. cruzi OST = format: biochemical, Trypanosoma cruzi; conditions: 10 μM acceptor tripeptide; Mg2+, Mn2+, pH 7.4; non-cooperative
Km (T. vaginalis OST) [µM],Km (E. histolytica OST) [µM],Km (T. cruzi OST) [µM],Substance
0.22,0.72,–,M5GN2-PP-Dol
–,–,0.49,M9GN2-PP-Dol
